Ten compounds from PubChem BioAssay AID316 (DTP/NCI, 2004) can be followed below.

Values joined by “and” are separate entries in the source; they are usually repeats but may differ in a detail not shown here. Equal values may be shown once. Toxic doses and inconclusive results are not listed.

For the test, the system named is P1534 leukemia ip, CD2F1 mice, survival T/C. In words: NCI In Vivo Anticancer Drug Screen. Data for tumor model P1534 Leukemia (intraperitoneal) in CD2F1 (CDF1) mice. Particulars: endpoint: mean survival time, schedule: Q01DX010 (ip), higher = longer survival. How it is done: The antitumor activity of compounds was measured in mice bearing transplantable tumors. Survival or tumor size were measured and the results are expressed as the measurement made in the treated group (T) divided by the measurement made in the vehicle treated control group (C). The tumor model used in this assay is P1534 Leukemia (intraperitoneal) in CD2F1 (CDF1) mice

Where [1] appears, read: dose: 50.0 mg/kg/injection, vehicle: saline.
The mark [2] stands for this setting: dose: 100.0 mg/kg/injection, vehicle: saline.
[3] abbreviates: dose: 25.0 mg/kg/injection, vehicle: saline.
The mark [4] stands for this setting: dose: 6.25 mg/kg/injection, vehicle: saline.
The mark [5] stands for this setting: dose: 12.5 mg/kg/injection, vehicle: saline.

Take `COC(=O)C1=COC(C)C2CN3CCc4c([nH]c5cc(OC)c(OC)cc45)C3CC12` (stereo unspecified): the T/C under setting [1] was 96 % of control; the T/C under setting [2] was 100 % of control; the T/C (dose: 200.0 mg/kg/injection, vehicle: saline) is 100 % of control.
Take `NC(Cn1ccc(=O)c(O)c1)C(=O)O` (stereo unspecified): the T/C by setting is: (dose: 118.0 mg/kg/injection, vehicle: saline) 92 % of control; (dose: 178.0 mg/kg/injection, vehicle: saline) 92 % of control; (dose: 267.0 mg/kg/injection, vehicle: saline) 92 % of control.
Consider `CS(=O)(=O)OCCC(=O)N1CCN(C(=O)CCOS(C)(=O)=O)CC1`, for which the T/C was 160 % of control under setting [3], 150 % of control under setting [1] and 270 % of control under setting [2].
For the compound `O=C(Nc1ccc(C2=NCCCN2)cc1)c1ccc(C(=O)Nc2ccc(C3=NCCCN3)cc2)cc1`, the T/C (dose: 1.0 mg/kg/injection, vehicle: saline) was 109 % of control; the T/C (dose: 2.0 mg/kg/injection, vehicle: saline) is 113 % of control and 118 % of control; the T/C (dose: 8.0 mg/kg/injection, vehicle: saline) is 150 % of control.
Regarding `CC(=O)OC(C)(C)/C=C/C(=O)[C@](C)(O)[C@H]1[C@H](O)C[C@@]2(C)[C@@H]3CC=C4[C@@H](C[C@H](O)C(=O)C4(C)C)[C@]3(C)C(=O)C[C@]12C`, the T/C by setting is: (dose: 0.16 mg/kg/injection, vehicle: saline) 96 % of control; (dose: 0.25 mg/kg/injection, vehicle: saline) 100 % of control; (dose: 0.38 mg/kg/injection, vehicle: saline) 103 % of control.
Regarding `O=C(NCCCCC(NC(=O)c1ccccc1)C(=O)NCCCCCCCCCCNC(=O)C(CCCCNC(=O)c1ccccc1)NC(=O)c1ccccc1)c1ccccc1` (stereo unspecified), the T/C reads like this: under setting [4], 103 % of control; under setting [5], 103 % of control; under setting [3], 100 % of control; under setting [1], 96 % of control.
For the compound `CN1CCN(CCCN2c3ccccc3Sc3ccc(C(F)(F)F)cc32)CC1`, the T/C (dose: 20.0 mg/kg/injection, vehicle: saline) was 107 % of control and the T/C (dose: 40.0 mg/kg/injection, vehicle: saline) is 115 % of control.
Take `OCCN1CCC(CCCC2CCNCC2)CC1`: the T/C by setting is: under setting [5], 96 % of control; under setting [3], 93 % of control; under setting [1], 89 % of control.
Turning to `O=C(NO)c1cccnc1`, the T/C runs as follows: (dose: 270.0 mg/kg/injection, vehicle: water) 113 % of control; (dose: 400.0 mg/kg/injection, vehicle: water) 107 % of control; (dose: 600.0 mg/kg/injection, vehicle: water) 107 % of control and 120 % of control.
As for `O=c1cccc2n1CC1CNC[C@H]2C1`, the T/C (dose: 0.78 mg/kg/injection, vehicle: saline) was 100 % of control; the T/C (dose: 1.56 mg/kg/injection, vehicle: saline) is 100 % of control; the T/C (dose: 3.13 mg/kg/injection, vehicle: saline) is 103 % of control; the T/C under setting [4] is 100 % of control.
